In this experiment the target is T1, PAF specific receptor binding site on rabbit platelet plasma membranes (Oryctolagus cuniculus, UniProt G1TEI7).
T1 construct: from tissue; host or cells: rabbit platelets (plasma membrane suspension)
Put plainly: Inhibition of 3H-PAF binding to rabbit platelet plasma membranes. The method, then: In vitro, they inhibit PAF-induced functions in both the cellular and tissue levels by disturbing the PAF binding to its specific receptor site. The ability of a compound of formula (I) to inhibit the PAF binding to its specific receptor binding site on rabbit platelet plasma membranes was measured by an assay recently developed by us.
The inhibition of H^3 -PAF binding to the rabbit platelet plasma membrane by a PAF-antagonist of Formula (I) was determined by a method employing isotropic labeling and filtration techniques. Generally, a series of Tris-buffered solutions of the selected antagonist at predetermined concentrations were prepared. Each of these solutions contains 1 pmole of ^3 H-PAF, a known amount of the test antagonist, and a sufficient amount of the pH 7.5 Tris-buffer solution (10 mM Tris, 0.25% bovine serum albumin, and 150 mM NaCl per ml water) to make the final volume of 1 ml. After adding into a set of test tubes each with 100 μg of the platelet plasma membrane suspension (S. B. Hwang, et al., Biochemistry, 22, 4756 (1983)) and one of the Tris-buffer solutions described above, the resulting mixture in each test tube was incubated at 0° C. for about one hour or until the reaction was complete. Two control samples, one of which (C1) contains all the ingredients described above except the antagonist and the other (C2) contains C1 plus a 1000-fold excess of unlabeled PAF, were also prepared and incubated simultaneously with the test samples. After the incubation was completed, the contents of each test tube were filtered under vacuo through a Whatman GF/C fiberglass filter and the residue washed rapidly several times with a total of 20 ml cold (0°-5° C.) Tris-buffer solution. Each washed residue was then suspended in 10 ml scintillation solution (Aquasol 2, New England Nuclear, Connecticut) and the radioactivity was counted in a Packard Tri-Carb 460CD Liquid Scintillation System. Defining the counts from a test sample as "Total binding with antagonist"; the counts from the control sample C1, as "Total binding C1 "; and the counts from the control sample C2 as "non-specific binding C2 ", the percent inhibition of each test antagonist can be determined by the following equation: [formula]

Where [1] appears, read: Table 1, E (trans), read-out: % Inhibition of PAF Binding.
[2] abbreviates: Table 1, E (trans), dose 5 μM, read-out: % Inhibition of PAF Binding.
The mark [3] stands for this setting: Table II, Z (cis), dose 5 μM, read-out: % Inhibition of PAF Receptor.
[4] abbreviates: Table II, Z (cis), read-out: % Inhibition of PAF Receptor.

Where “and” joins values, the source holds several entries; their conditions need not be identical. Equal entries are not always repeated. Where two headings read alike, the source gives them in different places.

T1 sequence (G1TEI7 1-342): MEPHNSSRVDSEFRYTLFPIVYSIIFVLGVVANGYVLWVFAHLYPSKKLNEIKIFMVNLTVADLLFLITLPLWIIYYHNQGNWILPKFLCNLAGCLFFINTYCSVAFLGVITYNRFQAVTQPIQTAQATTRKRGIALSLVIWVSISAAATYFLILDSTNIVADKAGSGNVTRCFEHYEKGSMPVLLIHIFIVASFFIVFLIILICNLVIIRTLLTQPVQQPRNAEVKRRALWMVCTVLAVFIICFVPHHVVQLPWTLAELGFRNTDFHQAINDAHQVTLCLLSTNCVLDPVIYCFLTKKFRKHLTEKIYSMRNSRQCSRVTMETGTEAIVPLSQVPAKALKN

Usually inhibition stands for the share of the control response that was lost under treatment. As to `CNS(=O)(=O)c1ccc(/C=C2\C(C)=C(CC(=O)OC)c3cc(OC)ccc32)cc1` [E CH2COOCH3 / SO2NHCH3 / OCH3, E Methyl 1-(4-(N-methylaminosulfonyl)phenyl)methylene-5-methoxy-2-methyl-1H-3-indenylacetate], the inhibition at 0.5 µM under setting [1] was found to be 67%. In addition, the inhibition at 5 µM under setting [2] worked out at 100%.

As for `COc1ccc2c(c1)C(CC(=O)O)=C(C)/C2=C\c1ccc(S(N)(=O)=O)cc1` [E CH2COOH / SO2NH2 / OCH3, 1-(4-aminosulfonylphenyl)methylene-5-methoxy-2-methyl-1H-3-indenyl acetic acid], the inhibition at 5 µM under setting [2] was determined as 4%.

On to `COCCC1=C(C)/C(=C\c2ccc(S(N)(=O)=O)cc2)c2ccc(F)cc21` [E CH2CH2OCH3 / SO2NH2 / F, E 1-(4-aminosulfonylphenyl)methylene-5-fluoro-2-methyl-1H-3-indenyl-(2-methoxy)ethane], for which the inhibition at 5 µM (read-out: % Inhibition of PAF Binding) came out at 61%.

Take `CCOc1ccc2c(c1)C(CC(=O)O)=C(C)/C2=C/c1ccc([S+](C)[O-])cc1` (stereo not shown) [Z CH2COOH / SOCH3 / OC2H5]: the inhibition at 5 µM under setting [3] came to 42%.

Regarding `COC(=O)CC1=C(C)/C(=C/c2ccc(S(N)(=O)=O)cc2)c2ccc(OC)cc21` [Z CH2COOCH3 / SO2NH2 / OCH3, Z methyl 1-(4-aminosulfonylphenyl)methylene-5-methoxy-2-methyl-1H-3-indenylacetate], under setting [4], the inhibition at 1 µM came to 39% and the inhibition at 10 µM came out at 75%. For the setting “Table II, Z (cis)”, this compound yielded an inhibition at 3 µM of 58%, an inhibition at 20 µM of 100% and an inhibition at 50 µM of 100%. Further, the inhibition at 5 µM under setting [3] stood at 66%.

With `COc1ccc2c(c1)C(CCSc1ccccc1)=C(C)/C2=C/c1ccc(S(N)(=O)=O)cc1` [Z CH2CH2SC6H5 / SO2NH2 / OCH3, Z 1-(4-aminosulfonylphenyl)methylene-5-methoxy-2-methyl-1H-3-indenyl-(2-phenylthio)ethane], the inhibition at 5 µM under setting [3] was determined as 33%.

On to `COC(=O)CC1=C(C)/C(=C/c2ccc(S(=O)(=O)NC(=N)N)cc2)c2ccc(OC)cc21` [Z CH2COOCH3 / SONHC(NH)NH2 / OCH3], for which the inhibition at 1 µM under setting [4] is 50%.

`COC(=O)CC1=C(C)/C(=C\c2ccc(OC)c(OC)c2)c2ccc(OC)cc21` [E CH2COOCH3 / 3,4-dimethoxy / OCH3, E methyl 1-(3,4-dimethoxyphenyl)methylene-5-methoxy-2-methyl-1H-3-indenylacetate]: under setting [1], the inhibition at 1 µM was found to be 45% and the inhibition at 10 µM was found to be 87%.

Take `COc1ccc2c(c1)C(CCO)=C(C)/C2=C\c1ccc(S(N)(=O)=O)cc1` [E CH2CH2OH / SO2NH2 / OCH3, E 1-(4-aminosulfonyl)methylene-5-methoxy-2-methyl-1H-3-indenyl-(2-hydroxy)ethane]: the inhibition at 1 µM under setting [1] was 59%.

As to `COc1ccc2c(c1)C(CC[S+](C)[O-])=C(C)/C2=C/c1ccc(S(N)(=O)=O)cc1` (stereo not shown) [Z CH2CH2SOCH3 / SO2NH2 / OCH3, Z 1-(4-aminosulfonylphenyl)methylene-5-methoxy-2-methyl-1H-3-indenyl-(2-methylsulfinyl)ethane], the inhibition at 5 µM under setting [3] turned out to be 56%.

Consider `CC(=O)NCCC1=C(C)/C(=C/c2ccc([S+](C)[O-])cc2)c2ccc(F)cc21` (stereo not shown) [Z CH2CH2NHCOCH3 / SOCH3 / F, Z 1-(4-methylsulfinylphenyl)methylene-5-fluoro-2-methyl-1H-3-indenyl-(2-acetamido)ethane], for which the inhibition at 5 µM under setting [3] is 39%.

As to `COc1ccc2c(c1)C(CC(=O)O)=C(C)/C2=C/c1ccc(S(N)(=O)=O)cc1` [Z CH2COOH / SO2NH2 / OCH3, 1-(4-aminosulfonylphenyl)methylene-5-methoxy-2-methyl-1H-3-indenylacetic acid], under setting [3], the inhibition at 5 µM came to 32%. In addition, for the setting “Table II, Z (cis)”, testing at 20 µM gave an inhibition of 57% and testing at 50 µM gave an inhibition of 94%.

Take `COC(=O)CC1=C(C)/C(=C/c2ccc(NS(C)(=O)=O)cc2)c2ccc(OC)cc21` [Z CH2COOCH3 / NHSO2CH3 / OCH3, Z methyl 1-(4-(N-mesylaminophenyl))methylene-5-methoxy-2-methyl-1H-3-indenylacetate]: testing at 3 µM (Table II, Z (cis)) gave an inhibition of 35%. Further, the inhibition at 10 µM under setting [4] was determined as 72%.

On to `COC(=O)CC1=C(C)/C(=C\c2ccc([S+](C)[O-])cc2)c2ccc(F)cc21` (stereo not shown) [E CH2COOCH3 / SOCH3 / F], for which the inhibition at 5 µM under setting [2] was determined as 45%.

With `COc1ccc2c(c1)C(CCSc1ccccc1)=C(C)/C2=C\c1ccc(S(N)(=O)=O)cc1` [E CH2CH2SC6H5 / SO2NH2 / OCH3, E 1-(4-aminosulfonylphenyl)methylene-5-methoxy-2-methyl-1H-3-indenyl-(2-phenylthio)ethane], the inhibition at 5 µM under setting [2] turned out to be 56%.

With `COc1ccc2c(c1)C(CCn1ccnc1)=C(C)/C2=C/c1ccc(S(N)(=O)=O)cc1` [Z drawing 18 / SO2NH2 / OCH3, Z 1-(4-aminosulfonylphenyl)methylene-5-methoxy-2-methyl-1H-3-indenyl-[2-(N-imidazolyl)]ethane], the inhibition at 5 µM under setting [3] was determined as 68%.

With `CNS(=O)(=O)c1ccc(/C=C2\C(C)=C(CC(=O)OC)c3cc(F)ccc32)cc1` [E CH2COOCH3 / SO2NHCH3 / F, E Methyl 1-[4-(N-methylaminosulfonyl)phenyl]-methylene-5-fluoro-2-methyl-1H-3-indenylacetate], under setting [1], the inhibition at 1 µM was 56%.

As to `COC(=O)CC1=C(C)/C(=C\c2ccc(S(N)(=O)=O)cc2)c2ccc(F)cc21` [E CH2COOCH3 / SO2NH2 / F, E-Methyl 1-(4-aminosulfonylphenyl)methylene-5-fluoro-2-methyl-1H-3-indenylacetate], under setting [1], the inhibition at 1 µM is 60%.

On to `COCCC1=C(C)/C(=C/c2ccc(S(N)(=O)=O)cc2)c2ccc(F)cc21` [Z CH2CH2OCH3 / SO2NH2 / F, Z 1-(4-aminosulfonylphenyl)methylene-5-fluoro-2-methyl-1H-3-indenyl-(2-methoxy)ethane], for which the inhibition at 5 µM (read-out: % Inhibition of PAF Receptor) worked out at 29%.

For `CSc1ccc(/C=C2/C(C)=C(CCNC(C)=O)c3cc(F)ccc32)cc1` [Z CH2CH2NHCOCH3 / SCH3 / F], under setting [3], the inhibition at 5 µM is 50%.

As to `CC(=O)NCCC1=C(C)/C(=C/c2ccc(S(C)(=O)=O)cc2)c2ccc(F)cc21` [Z CH2CH2NHCOCH3 / SO2CH3 / F, Z 1-(4-methylsulfonylphenyl)methylene-5-fluoro-2-methyl-1H-3-indenyl-(2-acetamido)ethane], the “% Inhibition of PAF Receptor” value (Table II, Z (cis), dose 5 μM) is 68% and 90%.

As for `COc1ccc2c(c1)C(CCn1ccnc1)=C(C)/C2=C\c1ccc(S(N)(=O)=O)cc1` [E drawing 16 / SO2NH2 / OCH3], the inhibition at 0.1 µM (Table 1, E (trans), dose 0.1 μM, read-out: % Inhibition of PAF Binding) amounted to 17%. Also, under setting [1], the inhibition at 0.5 µM came out at 31% and the inhibition at 1 µM came out at 45%. For the same compound, the inhibition at 5 µM under setting [2] was determined as 90%.

`COc1ccc2c(c1)C(CC[S+](C)[O-])=C(C)/C2=C\c1ccc(S(N)(=O)=O)cc1` (stereo not shown) [E CH2CH2SOCH3 / SO2NH2 / OCH3, E 1-(4-aminosulfonylphenyl)methylene-5-methoxy-2-methyl-1H-3-indenyl-(2-methylsulfinyl)ethane]: the inhibition at 0.5 µM under setting [1] is 24%. For the same compound, the inhibition at 5 µM under setting [2] was found to be 74%.

The values are drawn from patent US4656190A, “Indene derivatives and their use as PAF-antagonists” (Merck & Co., Inc., priority 1983, dated 1987).
